Data: patent US8158560B2, “Insecticidal arylpyrroline compounds” (Bayer CropScience AG, priority 2009, dated 2012)
Where “and” joins values, the source holds several entries; their conditions need not be identical. Equal entries are not always repeated.

Legend:
Type in all cases: in vivo
[1] = test system: Bemisia tabacii biotype B; experiment: Bemisia tabacii spray test (BEMIAR); conditions: 100 ppm, 14 dat, rating scheme b324
Experimental: Bemisia tabacii—Spray-Test (BEMIAR)
Insect: Bemisia tabacii biotype B
Plant: Tomato seedlings, 5 leaf stage in vinyl pots of 40 mm diameter
(§1) Solvent pre-mixture: Sorpol® SD: Sorpol® BDB:Dimethylformamide=3:3:14
10 mg a.i. is solved with 0.05 ml solvent pre-mixture. Water for dilution contains RME and AS (1000 ppm each) or 0.1% of spreader. Solutions are diluted at the rate of 1:5 for limit concentration determination.
Procedure: Solutions are sprayed to the plants. After drying treated pots are placed in the greenhouse where breeding BEMIAR for an infection-time of 24 h. Then the plants is placed in the testing room at 25° C. and 50-60% r.h., 16L8D lighting conditions.
After the specified period of time mortality in % is determined according to the following scheme/criteria: […]

[2] = test system: Myzus persicae-resistant strain, mixed population; experiment: Myzus persicae spray test (MYZUPE); conditions: 4 ppm, 6 dat
Experimental: Myzus persicae—Spray Test (MYZUPE)
Insect: Myzus persicae-resistant strain, mixed population
Plant: Eggplant seedling (Solanum melongena var. Senryo 2gou) 2 leaf age (4-5 weeks after sowing), transplanted into vinyl pots of 60 mm diameter
Solvent pre-mixture: Sorpol® SD: Sorpol® BDB:Dimethylformamide=3:3:14; 10 mg a.i. is solved with 0.05 ml solvent pre-mixture. Water for dilution contains RME and AS (1000 ppm each) or 0.1% of spreader. Solutions are diluted at the rate of 1:5 for limit concentration determination.
Procedure: 1 day before treatment aphids are inoculated onto the testing plants, about 50 aphids per leaf, 100 for 1 pot. A paper label is placed on each pot. Solutions are sprayed directly onto both insects and plants. After drying pots are placed in the greenhouse at 20° C.-25° C. and 50-60% relative humidity.
After the specified period of time the mortality in % is determined and the rate of death is calculated according to the following scheme/criteria: […]

[3] = test system: Frankliniella occidentalis; experiment: Frankliniella occidentalis spray test (FRANOC); conditions: 0.16 ppm, 7 dat
Experimental: (§2) After the specified period of time mortality in % is determined according to the following criteria: • 1 larva dead: 20% Efficacy • 5 larvae dead: 100% Efficacy Frankliniella occidentalis—Spray-Test (FRANOC)
Insect: Frankliniella occidentalis from own culture
Plant: Cucumber seedlings, cotyledon stage
as §1
(§3) 10 mg a i. is solved with 0.05 ml solvent pre-mixture.
(§4) Water for dilution contains RME and AS (1000 ppm each) or 0.1% of spreader. Solutions are diluted at the rate of 1:5 for limit concentration determination.
Procedure: The solution is sprayed to a cucumber seedling. After drying, the plant is placed in a plastic stand. About fifty 1st-instar larvae were inoculated to the plant and covered with a cage. The plant is stored at 25° C.
After the specified period of time % efficacy is determined by rating feeding damages on the plant according to the following criteria: […]

[4] = test system: Aulacophora femoralis 2nd instar larvae; experiment: Aulacophora femoralis spray test (AUACFE); conditions: 0.8 ppm, 6 dat, rating scheme b297
Experimental: Aulacophora femoralis—Spray Test (AUACFE)
Insect: Aulacophora femoralis 2nd instar larvae from own culture;
Material: PET cups with 5 ml soil and A-PET lids
Plant: Cucumber (Cucumis sativus var. Hanshiro), cotyledon stage; 1 plant per pot;
Solvent pre-mixture: Sorpol® SD: Sorpol® BDB:Dimethylformamide=3:3:14;
10 mg a.i. solved with 0.05 ml solvent pre-mixture. Water for dilution contains RME and AS (1000 ppm each) or 0.1% of spreader. Solutions are diluted at the rate of 1:5 for limit concentration determination.
Procedure: Solutions are sprayed onto a plant. After drying, plants are cut and put on the soil in the testing cup. Five larvae L2 are released into each testing cup.
The testing cup is covered with the lid and stored at 25° C. and 50-60% r.h., 16L8D lighting conditions.
After the specified period of time, the mortality in % is determined according to the following scheme/criteria: […]

[5] = test system: Nephotettix cincticeps-MR, resistant strain, 3rd-4th instar nymphs; experiment: Nephotettix cincticeps spray test (NEPHCI); conditions: 20 ppm, 7 dat
Experimental: Nephotettix cincticeps-Spray Test (NEPHCl)
Insect: Nephotettix cincticeps-MR, resistant strain, 3rd-4th instar nymphs from own culture
Plant: Rice seedlings (Oryza sativa var. Tamanishiki)
Material: ST-method container (200 ml desiccant polystyrene bottle) with a hole in the bottom sealed with metal mesh. The lid has a pit inside to keep desiccant, and it is used to sow rice seeds. The bottle is used upside down as “cover”, the lid with seedling is called “base”. Plastic stand-board with magnet labels to line the ST Bases up (“Stand”)
Solvent pre-mixture: Sorpol® SD: Sorpol® BDB:Dimethylformamide=3:3:14 10 mg a i. is solved with 0.05 ml solvent pre-mixture. Water for dilution contains RME and AS (1000 ppm each) or 0.1% of spreader. Solutions are diluted at the rate of 1:5 for limit concentration determination.
Procedure: On a pit in the center of a base (originally the desiccant space) pieces of paper towel are placed. 20-30 germinated rice seeds are sown on the paper and moistened with water. The base is covered with a plastic cup and kept in an incubator at 30° C. for five days.
The base with rice seedlings is placed on the Stand. Each base is sprayed with the solution.
After drying twelve 3rd-4th instar nymphs of Nephotettix cincticeps-MR are put on the base and confined with the cover. The ST containers on the Stands are kept in the testing room at 25° C. and 50-60% r.h., 16L8D lighting conditions.
After the specified period of time mortality in % is determined by rating according to the following scheme/criteria: Counting living moving insects, calculate mortality in % by the formula: […]

Panonychus citri = Panonychus citri spray test (METTCI); conditions: 4 ppm, 7 dat, rating scheme b306
Experimental: Panonychus citri—Spray Test (METTCI)
Plant: Citrus plants, ca 8 cm height
as §1, §3, §4
Procedure: 1 day before treatment mites were inoculated onto potted citrus plants, about 50 adults and some nymphs for 1 pot. The test solution is sprayed directly onto both mites and plants. After drying pots are stored at 25° C.
After the specified period of time mortality in % is determined by rating according to the following scheme/criteria.

Adoxophyes honmai = Adoxophyes honmai test (ADXPFA), treated artificial diet; conditions: 0.8 ppm, 2 dat
Experimental: Procedure: Broccoli seedlings of 4-5 leaf stage planted in a vinyl pot (9 cm diameter) are sprayed with the solution. After drying half of the leaves of the plants are cut and put into a A-PET cup. Ten larvae of Plutella xylostella L3 are released in the cup and the dish is placed at 25° C. After 4 days another half leaf is cut and added to the dish. After the specified period of time mortality in % is determined according to the figures of mortality used for evaluation. • 1 larva dead: 20% Efficacy • 5 larvae dead: 100% Efficacy Adoxophyes honmai—Test (ADXPFA)
Insect: Adoxophyes honmai from own culture
Material: 1 A-PET cup with lid
Food agent: 4.5 g of artificial diet powder Silkmate-Kantan-3®
as §1
10 mg a i. is solved with 0.05 ml solvent pre-mixture. Water for dilution contains RME and AS (1000 ppm each) or 0.1% of spreader. Solutions are diluted at the rate of 1:5 for limit concentration determination.
Procedure: 4.5 g of artificial diet powder is put into a PET cup (10 cm diameter, 5 cm depth). The powder was leveled to make a layer in the bottom of the cup. […]
as §2

Compound | Efficacy/day(s) of treatment [1] [%/14 dat] | Efficacy/day(s) of treatment [2] [%/6 dat] | Efficacy/day(s) of treatment ([2]; rating scheme) [%/6 dat] | Efficacy/day(s) of treatment [3] [%/7 dat] | Efficacy/day(s) of treatment [4] [%/6 dat] | Efficacy/day(s) of treatment [5] | Efficacy/day(s) of treatment (Panonychus citri) [%/7 dat] | Efficacy/day(s) of treatment (Adoxophyes honmai) [%/2 dat]
4-{3-[3,5-Bis(trifluoromethyl)phenyl]-3-(trifluoromethyl)-3,4-dihydro-2H-pyrrol-5-yl}-2-methyl-N-(thietan-3-yl)benzamide [Compound 1-19] | 100 | 90 | 98 | 98 | 100 | 20%/7 dat and 80%/7 dat | 60 | 60
Cc1cc(C2=NOC(c3cc(C(F)(F)F)cc(C(F)(F)F)c3)(C(F)(F)F)C2)ccc1C(=O)NC1C[S+]([O-])C1 (stereo not drawn) [ExNo A-23 of WO 2009/080250, reference compound] |  | 60 |  | 60 |  | 40%/7 dat |  | 40
